Data taken from patent EP4678638A1, “NEW E3 UBIQUITIN LIGASE LIGAND, PROTEIN DEGRADATION AGENT AND USE THEREOF” (priority 2023, dated 2024).

Legend:
H2228 = test: CCK-8 proliferation, NCI-H2228 (H2228); type: cell-based; conditions: Homo sapiens, NCI-H2228; Table B6, compounds designed based on the ALK inhibitors; H2228 cells; read-out: Inhibitory activity (IC50, nM) on tumor cell proliferation, H2228
Method in brief: (§1)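 Cells seeded, then after 24 h treated with 10 concentrations (top 10 µM, 5-fold serial dilution) for a line-specific time at 37°C, 5% CO2. Viability read by CCK-8; IC50 fitted from growth-inhibition curves.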

SR = test: CCK-8 proliferation, SR; type: cell-based, Human; conditions: Homo sapiens; Table B6, compounds designed based on the ALK inhibitors; SR cells; read-out: Inhibitory activity (IC50, nM) on tumor cell proliferation, SR
Method in brief: as §1

MM.1S = test: CCK-8 proliferation, MM.1S; type: cell-based; conditions: Homo sapiens, MM1.S; Table B6, compounds designed based on the ALK inhibitors; MM.1S cells; read-out: Inhibitory activity (IC50, nM) on tumor cell proliferation, MM.1S
Method in brief: as §1

ALK = molecular target: T1, ALK (Homo sapiens, UniProt Q96SW2+Q9HC35+Q9UM73); test: Western blot degradation of ALK (H2228 Cell); type: cell-based; conditions: Table D5
T1 construct: evaluate the effects of the compounds of the present disclosure on the expression of target proteins in cells; endogenous in cells; host or cells: H2228
Method in brief: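 Quantification by ImageJ densitometry of Western blot bands: DC50 is the fitted concentration halving band intensity relative to DMSO. Percent remaining uses internal-control normalization, and degradation rate is its complement.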

MCF7 = test: CCK-8 proliferation, MCF7 (MCF-7); type: cell-based; conditions: Homo sapiens, MCF7; Table B6, compounds designed based on the ALK inhibitors; MCF-7 cells; read-out: Inhibitory activity (IC50, nM) on tumor cell proliferation, MCF-7
Method in brief: as §1

[1] = molecular target: T2, human Cereblon WT GST-tagged protein (Homo sapiens, UniProt Q96SW2); test: CRBN binding, HTRF (CEREBLON BINDING kit); conditions: Table II-2, CRBN binding screening, HTRF
T2 construct: purchased CISBIO 64BDCRBNPEH
Method in brief: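 Competitive HTRF: GST-tagged human WT Cereblon mixed with compound, Thalidomide-Re tracer and GST Eu antibody, incubated 3 h at room temperature. Signals read at 620 and 665 nm.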

H1975 = test: CCK-8 proliferation, NCI-H1975 (H1975); type: cell-based, Human; conditions: Homo sapiens, NCI-H1975; Table B6, compounds designed based on the ALK inhibitors; H1975 cells; read-out: Inhibitory activity (IC50, nM) on tumor cell proliferation, H1975
Method in brief: as §1

T1 sequence (Q9HC35+Q9UM73 fused): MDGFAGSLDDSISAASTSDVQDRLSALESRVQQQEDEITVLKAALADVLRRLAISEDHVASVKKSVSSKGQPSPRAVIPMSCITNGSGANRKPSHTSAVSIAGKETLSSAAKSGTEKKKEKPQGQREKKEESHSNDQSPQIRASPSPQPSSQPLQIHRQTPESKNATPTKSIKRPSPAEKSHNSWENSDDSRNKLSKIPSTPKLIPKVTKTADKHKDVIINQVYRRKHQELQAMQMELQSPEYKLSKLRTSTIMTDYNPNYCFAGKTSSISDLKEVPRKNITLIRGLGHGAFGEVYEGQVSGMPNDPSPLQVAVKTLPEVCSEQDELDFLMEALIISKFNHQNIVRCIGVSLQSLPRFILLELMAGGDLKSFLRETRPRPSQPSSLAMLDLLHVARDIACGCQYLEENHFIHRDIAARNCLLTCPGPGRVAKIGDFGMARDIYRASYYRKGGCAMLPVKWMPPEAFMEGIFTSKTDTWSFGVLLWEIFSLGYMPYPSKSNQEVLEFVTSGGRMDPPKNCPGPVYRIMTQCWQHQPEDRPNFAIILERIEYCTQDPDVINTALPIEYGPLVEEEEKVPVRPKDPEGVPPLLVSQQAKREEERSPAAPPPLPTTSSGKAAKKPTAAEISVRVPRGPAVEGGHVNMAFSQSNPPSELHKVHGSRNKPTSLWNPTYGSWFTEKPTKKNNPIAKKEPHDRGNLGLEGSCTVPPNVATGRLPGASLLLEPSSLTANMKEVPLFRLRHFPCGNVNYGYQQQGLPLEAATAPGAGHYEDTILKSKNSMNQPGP
T1 sequence (Q96SW2 whole entry): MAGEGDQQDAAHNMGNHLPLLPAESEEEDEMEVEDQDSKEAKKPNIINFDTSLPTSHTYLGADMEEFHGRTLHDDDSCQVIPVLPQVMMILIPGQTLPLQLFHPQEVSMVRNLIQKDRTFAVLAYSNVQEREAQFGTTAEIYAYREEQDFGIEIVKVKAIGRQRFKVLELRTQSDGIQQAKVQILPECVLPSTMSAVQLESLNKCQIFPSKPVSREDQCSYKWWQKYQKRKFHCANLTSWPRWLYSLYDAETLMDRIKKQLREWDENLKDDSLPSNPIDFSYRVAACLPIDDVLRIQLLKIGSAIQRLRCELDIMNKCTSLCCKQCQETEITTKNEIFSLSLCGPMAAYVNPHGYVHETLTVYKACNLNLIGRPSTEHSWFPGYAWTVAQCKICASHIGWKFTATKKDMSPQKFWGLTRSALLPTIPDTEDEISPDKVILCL
T1 sequence (Q16531 whole entry partner): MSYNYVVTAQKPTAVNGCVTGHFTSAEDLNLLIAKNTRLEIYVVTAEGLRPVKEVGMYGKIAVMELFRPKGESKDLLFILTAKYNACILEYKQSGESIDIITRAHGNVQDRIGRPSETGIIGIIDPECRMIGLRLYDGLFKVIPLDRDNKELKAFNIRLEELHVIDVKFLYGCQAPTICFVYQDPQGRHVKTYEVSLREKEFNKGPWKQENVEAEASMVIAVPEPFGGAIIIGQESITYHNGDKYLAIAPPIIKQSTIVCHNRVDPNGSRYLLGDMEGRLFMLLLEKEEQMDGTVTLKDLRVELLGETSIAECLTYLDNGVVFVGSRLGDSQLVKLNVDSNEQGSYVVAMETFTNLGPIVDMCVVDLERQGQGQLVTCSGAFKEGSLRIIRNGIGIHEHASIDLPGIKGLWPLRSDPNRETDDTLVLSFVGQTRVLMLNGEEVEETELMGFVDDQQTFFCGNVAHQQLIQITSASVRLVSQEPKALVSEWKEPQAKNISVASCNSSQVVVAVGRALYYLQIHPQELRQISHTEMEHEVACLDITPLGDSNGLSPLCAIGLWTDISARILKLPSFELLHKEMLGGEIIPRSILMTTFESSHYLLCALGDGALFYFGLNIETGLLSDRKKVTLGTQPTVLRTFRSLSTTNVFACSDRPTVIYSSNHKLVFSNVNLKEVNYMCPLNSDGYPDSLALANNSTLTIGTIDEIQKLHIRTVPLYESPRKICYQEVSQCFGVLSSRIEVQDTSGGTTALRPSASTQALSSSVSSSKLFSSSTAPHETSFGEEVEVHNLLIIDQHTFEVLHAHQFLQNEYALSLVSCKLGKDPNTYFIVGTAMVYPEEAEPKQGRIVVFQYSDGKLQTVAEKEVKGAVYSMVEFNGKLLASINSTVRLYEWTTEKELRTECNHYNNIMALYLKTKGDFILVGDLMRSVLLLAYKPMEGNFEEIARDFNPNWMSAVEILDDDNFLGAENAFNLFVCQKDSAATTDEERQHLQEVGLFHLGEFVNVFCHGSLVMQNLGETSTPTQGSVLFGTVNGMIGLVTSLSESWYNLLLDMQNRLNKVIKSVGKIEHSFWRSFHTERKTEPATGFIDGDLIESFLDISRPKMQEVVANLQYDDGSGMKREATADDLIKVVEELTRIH
T2 sequence (Q96SW2 whole entry): as the sequence (Q96SW2 whole entry) above

Row | Compound | IC50 (H2228) [nM] | IC50 (SR) [nM] | IC50 (MM.1S) [nM] | Degradation of substrate protein ALK (substrate protein remaining %) (ALK) | IC50 (MCF7) [nM] | inhibition at 0.5 µM ([1]; at 0.5µM, read-out: Inhibition rate (%) at 0.5µM) [%] | inhibition at 2 µM ([1]; at 2 µM, read-out: Inhibition rate (%) at 2 µM) [%] | IC50 (H1975) [nM]
1 | CCc1cc2c(cc1N1CCN(Cc3ccc(C4CCC(=O)NC4=O)cc3)CC1)C(C)(C)c1[nH]c3cc(C#N)ccc3c1C2=O (stereo not shown) [GT-07323, 8-(4-(4-(2,6-dioxopiperidin-3-yl)benzyl)piperazin-1-yl)-9-ethyl-6,6-dimethyl-11-oxo-6,11-dihydro-5H-benzo[b]carbazole-3-carbonitrile] | 100 to 500 | 1 to 10 | 500 to 1000 | A (A is defined as 0% ≤ substrate protein remaining % ≤ 80%) |  |  |  | 
2 | Cc1cc(Nc2ncc(Cl)c(Nc3ccccc3S(=O)(=O)C(C)C)n2)c(OC(C)C)cc1C1CCN(Cc2ccc(C3CCC(=O)NC3=O)cn2)CC1 (stereo not shown) [GT-07600, 3-(6-((4-(4-((5-chloro-4-((2-(isopropylsulfonyl)phenyl)amino)pyrimidin-2-yl)amino)-5-isopropoxy-2-methylphenyl)piperidin-1-yl)methyl)pyridin-3-yl)piperidine-2,6-dione] | 50 to 100 | 10 to 50 | 500 to 1000 | A (A is defined as 0% ≤ substrate protein remaining % ≤ 80%) | 100 to 500 |  |  | 
3 | CCc1cc2c(cc1N1CCC(N3CCN(Cc4ccc(C5CCC(=O)NC5=O)cc4)CC3)CC1)C(C)(C)c1[nH]c3cc(C#N)ccc3c1C2=O (stereo not shown) [GT-03762, 8-(4-(4-(4-(2,6-dioxopiperidin-3-yl)benzyl)piperazin-1-yl)piperidin-1-yl)-9-ethyl-6,6-dimethyl-11-oxo-6,11-dihydro-5H-benzo[b]carbazole-3-carbonitrile] |  | 1 to 10 | 500 to 1000 | A (A is defined as 0% ≤ substrate protein remaining % ≤ 80%) |  | 40 to 53 | 60 to 80 | 
4 | Cc1cc(Nc2ncc(Cl)c(Nc3ccccc3S(=O)(=O)C(C)C)n2)c(OC(C)C)cc1C1CCN(Cc2cccc(N3CCC(=O)NC3=O)c2)CC1 [GT-07593, 1-(3-((4-(4-((5-chloro-4-((2-(isopropylsulfonyl)phenyl)amino)pyrimidin-2-yl)amino)-5-isopropoxy-2-methylphenyl)piperidin-1-yl)methyl)phenyl)dihydropyr imidine-2,4(1H,3H)-dione] | 50 to 100 | 10 to 50 | 500 to 1000 | A (A is defined as 0% ≤ substrate protein remaining % ≤ 80%) | 100 to 500 |  |  | 
5 | COc1cc(N2CCC(N(C)Cc3ccnc(N4CCC(=O)NC4=O)c3)CC2)ccc1Nc1ncc(Cl)c(Nc2ccccc2P(C)(C)=O)n1 [GT-07694, 1-(4-(((1-(4-((5-chloro-4-((2-(dimethylphosphoryl)phenyl)amino)pyrimidin-2-yl)amino)-3-methoxyphenyl)piperidin-4-yl)(methyl)amino)methyl)pyridin-2-yl)dihydropyrimidine-2,4(1H,3H)-dione] | 10 to 50 | 1 to 10 | 500 to 1000 | A (A is defined as 0% ≤ substrate protein remaining % ≤ 80%) | 100 to 500 |  |  | 100 to 500
